Source: article PMC6268022, “Substituted N-Benzylpyrazine-2-carboxamides: Synthesis and Biological Evaluation ^†” (Molecules, 2012)
In brackets after ≈: the same amount, converted by molar mass. Like-named read-outs stand apart in the source and are kept apart here.

How the values were obtained:
[1] = test system: photosynthetic electron transport (PET) in spinach chloroplasts; assay: Inhibition of photosynthetic electron transport (oxygen evolution rate) in spinach chloroplasts; format: biochemical, Spinacia oleracea L.; details: DCPIP photoreduction, pH 7.2
Procedure: All studied compounds were evaluated for their photosynthetic electron transport (PET) inhibition in spinach chloroplasts, which was reflected in the inhibition of oxygen evolution rate. The photosynthesis-inhibiting activity of the compounds has been expressed as IC50 values. Compounds 4, 5, 7 and 8 were not tested due to their low solubility in tested medium.
Chloroplasts were prepared from spinach (Spinacia oleracea L.) according to Masarovičová and Kráľová [31]. The inhibition of photosynthetic electron transport (PET) in spinach chloroplasts was determined spectrophotometrically (Genesys 6, Thermo Scientific, Madison, WI, USA) using an artificial electron acceptor 2,6-dichlorophenol-indophenol (DCPIP) according to Kráľová et al. and the rate of photosynthetic electron transport (PET) was monitored as a photo-reduction of DCPIP. The measurements were carried out in a phosphate buffer (0.02 mol/L, pH 7.2) containing sucrose (0.4 mol/L), MgCl2 (0.005 mol/L) and NaCl (0.015 mol/L). The chlorophyll content was 30 mg/L in these experiments and the samples were irradiated (~100 W/m^2) from a 10 cm distance with halogen lamp (250 W) using a 4 cm water filter to prevent warming of the samples (suspension temperature 22 °C). The studied compounds were dissolved in DMSO due to their limited water solubility. […] The inhibitory efficiency of the studied compounds was expressed as the IC50 values, i.e., molar concentration of the compounds causing 50% decrease in the oxygen evolution relative to the untreated control.

[2] = test system: M. tuberculosis H37Rv CNCTC My 331/88; assay: In vitro antimycobacterial microdilution panel method; format: cell-based; details: Mycobacterium tuberculosis, 336 h
M. avium CNCTC My 80/72 = assay: as above; format: cell-based; details: Mycobacterium avium, 336 h; CNCTC My 80/72, pH 6.0, 14 days
M. avium CNCTC My 152/73 = assay: as above; format: cell-based; details: Mycobacterium avium, 336 h; CNCTC My 152/73, pH 6.0, 14 days
[3] = test system: M. kansasii CNCTC My 235/80; assay: as above; format: cell-based; details: Mycobacterium kansasii, 144 h; CNCTC My 235/80, pH 6.0, 6 days
[4] = test system: Trichophyton mentagrophytes 445; assay: In vitro antifungal microdilution broth method; format: cell-based; details: RPMI 1640 pH 7.0, 35 °C; for MIC: read-out: TM MIC
Procedure: The Department of Medical and Biological Sciences at the Faculty of Pharmacy in Hradec Králové, Charles University in Prague, Czech Republic, performed the antifungal susceptibility assays, which was carried out using microdilution broth method. Compounds were dissolved in DMSO and diluted in a twofold manner with RPMI 1640 medium with glutamine buffered to pH 7.0 (3-morpholinopropane-1-sulfonic acid). […] Drug-free controls were included. […] The MICs were determined after 24 and 48 h, respectively after 72 and 120 h for Trichophyton mentagrophytes (TM), of static incubation in dark at 35 °C. Tested species: […]

[5] = HPLC lipophilicity determination (capacity factor k / log k); details: RP-HPLC, C18, MeOH 70%/H2O 30%, 30 °C
Procedure: The separation process was controlled by Agilent ChemStation, version B.04.02 extended by spectral module (Agilent Technologies Inc.). A solution of MeOH (HPLC grade, 70%) with H2O (HPLC-Milli-Q Grade, 30%) was used as mobile phase. The total flow of the column was 1.0 mL/min, injection 20 µL, column temperature 30 °C. 210 nm as detection wavelength and 270 nm as monitor wavelength were chosen. The KI methanol solution was used for the dead time (TD) determination. Retention times (TR) of synthesized compounds were measured in minutes. The capacity factors k were calculated using Microsoft Excel according to formula k = (TR − TD)/TD, where TR is the retention time of the solute and TD denotes the dead time obtained via an unretained analyte. Log k, calculated from the capacity factor k, is used as the lipophilicity index converted to log P scale.

[6] = test system: pigment-protein complexes in photosystem 2; assay: Fluorescence of chlorophyll a in spinach chloroplasts; format: biochemical, Spinacia oleracea L.; details: λex = 436 nm, 0-0.42 mmol/L
Text: The effects of the studied compounds on the photosynthetic apparatus of spinach chloroplasts were investigated by studying chlorophyll a (Chla) fluorescence. […] The extent of perturbation of chlorophyll a-protein complexes in the thylakoid membrane was reflected as decreased fluorescence of the pigment (see Figure 3B). Similar decrease of Chla fluorescence in plant chloroplasts was also observed previously after treatment with substituted benzanilides and salicyanilides. The fluorescence emission spectra of chlorophyll a (Chla) and aromatic amino acids in spinach chloroplasts were recorded on fluorescence spectrophotometer F-2000 (Hitachi, Tokyo, Japan) using excitation wavelength λex = 436 nm for monitoring fluorescence of Chla and λex = 275 nm for monitoring fluorescence of aromatic amino acids, excitation slit 20 nm and emission slit 10 nm. The samples were kept in the dark 2 min before measuring. The phosphate buffer used for dilution of the chloroplast suspension was the same as described above. Due to low aqueous solubility the compounds were added to a chloroplast suspension in DMSO solution. The DMSO concentration in all samples was the same as in the control (10%). The chlorophyll concentration in chloroplast suspension was 10 mg/L.

[7] = test system: aromatic amino acids in the proteins of spinach chloroplasts situated in PS 2; assay: Fluorescence of aromatic amino acids in spinach chloroplasts; format: biochemical, Spinacia oleracea L.; details: λex = 275 nm, 0-0.11 mmol/L
Text: Figure 4 presents fluorescence emission spectra of aromatic amino acids of untreated spinach chloroplasts and of chloroplasts treated with increasing concentrations of compound 6 (see Figure 4A) as well as dependence of fluorescence intensity of chlorophyll a on concentration of compounds 2 (squares), 11 (triangles) and 6 (circles) (see Figure 4B). Binding of these compounds to aromatic amino acids occurring in photosynthetic proteins contribute to PET inhibition. The fluorescence emission spectra of chlorophyll a (Chla) and aromatic amino acids in spinach chloroplasts were recorded on fluorescence spectrophotometer F-2000 (Hitachi, Tokyo, Japan) using excitation wavelength λex = 436 nm for monitoring fluorescence of Chla and λex = 275 nm for monitoring fluorescence of aromatic amino acids, excitation slit 20 nm and emission slit 10 nm. The samples were kept in the dark 2 min before measuring. The phosphate buffer used for dilution of the chloroplast suspension was the same as described above. Due to low aqueous solubility the compounds were added to a chloroplast suspension in DMSO solution. The DMSO concentration in all samples was the same as in the control (10%). The chlorophyll concentration in chloroplast suspension was 10 mg/L.

[8] = MIC with respect to molecular weight, Šula's medium pH 6.0, 14 days, read-out: MIC M. tuberculosis H37Rv (value in parentheses)
[9] = Šula's medium pH 6.0, 37 °C, 14 days, read-out: MIC M. tuberculosis H37Rv
[10] = Trichophyton mentagrophytes, 445, 72 h, pH 7, evaluated after 72 h
[11] = Trichophyton mentagrophytes, 445, 120 h, pH 7, evaluated after 120 h

Row | Compound | IC50 [1] | MIC [2, 8] | MIC [2, 9] | MIC (M. avium CNCTC My 80/72) | MIC (M. avium CNCTC My 152/73) | MIC [3] | MIC [4, 10] | MIC [4, 11] | log k [5] | TM MIC ([4]; evaluated after 72 h) | chlorophyll a fluorescence emission [6] | fluorescence of aromatic amino acids [7]
1 | O=C(NCc1ccccc1)c1cnc(Cl)cn1 [Compound 1, N-Benzyl-5-chloropyrazine-2-carboxamide] | 1620 µM | 100 µM | 25 µg/mL | 100 µg/mL (≈ 404 µM) | 100 µg/mL (≈ 404 µM) | 100 µg/mL (≈ 404 µM) | 125 µM (≈ 31 µg/mL) | 125 µM (≈ 31 µg/mL) | 0.1862 | – | – | –
2 | O=C(NCc1cccc(C(F)(F)F)c1)c1cnc(Cl)cn1 [Compound 2, 5-Chloro-N-(3-trifluoromethylbenzyl)pyrazine-2-carboxamide] | 346 µM | 79 µM | 25 µg/mL | 25 µg/mL (≈ 79.2 µM) | 100 µg/mL (≈ 317 µM) | 50 µg/mL (≈ 158 µM) | 15.6 µM (≈ 4.93 µg/mL) | 15.6 µM (≈ 4.93 µg/mL) | 0.4384 | 15.62/15.62 µmol/L | decreased intensity of the emission band at 686 nm | –
3 | O=C(NCc1ccc(Cl)cc1)c1cnc(Cl)cn1 [Compound 3, 5-Chloro-N-(4-chlorobenzyl)pyrazine-2-carboxamide] | 604 µM | 44 µM | 12.5 µg/mL | 100 µg/mL (≈ 354 µM) | 100 µg/mL (≈ 354 µM) | 100 µg/mL (≈ 354 µM) | 125 µM (≈ 35.3 µg/mL) | 125 µM (≈ 35.3 µg/mL) | 0.4150 | – | – | –
4 | COc1ccc(CNC(=O)c2cnc(Cl)cn2)cc1 [Compound 4, 5-Chloro-N-(4-methoxybenzyl)pyrazine-2-carboxamide] | – | 90 µM | 25 µg/mL | 100 µg/mL (≈ 360 µM) | 50 µg/mL (≈ 180 µM) | 100 µg/mL (≈ 360 µM) | 250 µM (≈ 69.4 µg/mL) | 250 µM (≈ 69.4 µg/mL) | 0.1655 | – | – | –
5 | O=C(NCc1ccccc1)c1cncc(Cl)n1 [Compound 5, N-Benzyl-6-chloropyrazine-2-carboxamide] | – | 50 µM | 12.5 µg/mL | 100 µg/mL (≈ 404 µM) | 100 µg/mL (≈ 404 µM) | 50 µg/mL (≈ 202 µM) | 250 µM (≈ 61.9 µg/mL) | 500 µM (≈ 124 µg/mL) | 0.2002 | – | – | –
6 | O=C(NCc1cccc(C(F)(F)F)c1)c1cncc(Cl)n1 [Compound 6, 6-Chloro-N-(3-trifluoromethylbenzyl)pyrazine-2-carboxamide] | 1210 µM | 39 µM | 12.5 µg/mL | 25 µg/mL (≈ 79.2 µM) | 100 µg/mL (≈ 317 µM) | 100 µg/mL (≈ 317 µM) | 62.5 µM (≈ 19.7 µg/mL) | 125 µM (≈ 39.5 µg/mL) | 0.4507 | – | – | quenching of their fluorescence at 334 nm
7 | O=C(NCc1ccc(Cl)cc1)c1cncc(Cl)n1 [Compound 7, 6-Chloro-N-(4-chlorobenzyl)pyrazine-2-carboxamide] | – | 44 µM | 12.5 µg/mL | 100 µg/mL (≈ 354 µM) | 12.5 µg/mL (≈ 44.3 µM) | 100 µg/mL (≈ 354 µM) | 125 µM (≈ 35.3 µg/mL) | 125 µM (≈ 35.3 µg/mL) | 0.4335 | – | – | –
8 | COc1ccc(CNC(=O)c2cncc(Cl)n2)cc1 [Compound 8, 6-Chloro-N-(4-methoxybenzyl)pyrazine-2-carboxamide] | – | 22 µM | 6.25 µg/mL | 100 µg/mL (≈ 360 µM) | 50 µg/mL (≈ 180 µM) | 100 µg/mL (≈ 360 µM) | 500 µM (≈ 139 µg/mL) | 500 µM (≈ 139 µg/mL) | 0.1838 | – | – | –
